Usually inhibition stands for the relative decrease from the control value, in per cent. A word on the melting point: it is the temperature of the solid-liquid transition.

Molecules are shown by their SMILES.

For series [1], the target named is T1, recombinant human plasminogen activator inhibitor-1 (Homo sapiens, UniProt P05121).
T1 construct: purchased Molecular Innovations, Royal Oak, Mich
Briefly: Primary screen for the PAI-1 inhibition (residual tPA activity, chromogenic Spectrozyme-tPA). The class given is biochemical. The following applies: 25 uM test compound; pH 6.6 buffer, 140 nM PAI-1, 70 nM tPA. On the procedure:
Primary Screen for the PAI-1 Inhibition
Test compounds were dissolved in DMSO at a final concentration of 10 mM, then diluted 100× in physiologic buffer. The inhibitory assay was initiated by the addition of the test compound (1-100 μM final concentration, maximum DMSO concentration of 0.2%) in a pH 6.6 buffer containing 140 nM recombinant human plasminogen activator inhibitor-1 (Molecular Innovations, Royal Oak, Mich.). Following a 1 hour incubation at room temperature, 70 nM of recombinant human tissue plasminogen activator (tPA) was added, and the combination of the test compound, PAI-1 and tPA was incubated for an additional 30 minutes. Following the second incubation, Spectrozyme-tPA (American Diagnostica, Greenwich, Conn.), a chromogenic substrate for tPA, was added and absorbance was read at 405 nm at 0 and 60 minutes. Relative PAI-1 inhibition was equal to the residual tPA activity in the presence of the test compound and PAI-1. Control treatments included the complete inhibition of tPA by PAI-1 at the molar ratio employed (2:1), and the absence of any effect of the test compound on tPA alone.

T1 sequence (P05121 24-402): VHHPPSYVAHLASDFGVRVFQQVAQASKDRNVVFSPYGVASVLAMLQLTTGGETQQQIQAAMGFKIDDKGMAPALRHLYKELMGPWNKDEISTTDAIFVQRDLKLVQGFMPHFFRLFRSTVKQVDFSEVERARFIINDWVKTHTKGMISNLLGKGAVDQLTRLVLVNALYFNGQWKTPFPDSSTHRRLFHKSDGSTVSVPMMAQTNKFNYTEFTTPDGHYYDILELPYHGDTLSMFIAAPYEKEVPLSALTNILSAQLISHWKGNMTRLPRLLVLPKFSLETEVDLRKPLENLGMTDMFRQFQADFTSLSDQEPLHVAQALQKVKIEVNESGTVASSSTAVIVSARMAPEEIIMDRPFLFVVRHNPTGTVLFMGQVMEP

Regarding `Cc1ccc(-c2ccc3c(c2)c(C(=O)c2ccc(Cl)cc2)cn3CC(=O)O)cc1` [Example 3, [3-(4-chlorobenzoyl)-5-(4-methylphenyl)-1H-indol-1-yl]-acetic acid], in series [1], the inhibition at 25 µM turned out to be 46%.

Molecule `O=C(O)Cn1cc(C(=O)c2ccc(Cl)cc2)c2cc(-c3ccc(Cl)cc3)ccc21` [Example 1, [3-(4-chlorobenzoyl)-5-(4-chlorophenyl)-1H-indol-1-yl]acetic acid] returned a melting point of 255 to 257 °C. Besides, the inhibition at 25 µM in series [1] came out at 47%. Regarding `Cc1ccc(-c2ccc3c(c2)c(C(=O)c2cc4ccccc4s2)cn3CC(=O)O)cc1` [Example 2, [3-(Benzo[b]thiophene-2-carbonyl)-5-(4-methylphenyl)-1H-indol-1-yl]-acetic acid], the inhibition at 25 µM in series [1] was 45%.
